Reference: US8623400B2, “Drug-carrying contact lens and method for fabricating the same” (National Chiao Tung University, priority 2011, dated 2014)

Assay: Drug-release test of drug-carrying contact lenses
Assay type: physicochemical
Text: The drug-release tests are respectively performed on the first encapsulation-type drug-carrying contact lens and the drug-soaking type contact lens of the present invention to understand the drug-release thereof.
In one embodiment, the encapsulation-type drug-carrying contact lens adopts a hydrophobic antibiotic—Azithromycin, which is an oral azalide group antibiotic that is a subgroup of macrolides, and which is a broad-spectrum antibiotic effective to Gram-positive bacteria, Gram-negative bacteria, anaerobic bacteria, Chlamydia, helicoids, etc. […] Such a phenomenon may be attributed to the fact: the higher the temperature, the higher the oscillation frequency of the drug molecules, and the greater the quantity of the drug molecules diffusing out. In the present invention, the drug-release amount can be quantitively controlled according to the application environment. Therefore, the present invention has a potential to realize a customized drug-carrying contact lens.
In one embodiment, the drug-soaking type drug-carrying contact lens adopts Vitamin B12, which is a hydrophilic drug and effective to pernicious anaemia, and which is a red crystalline powder likely to absorb humidity, easy to dissolve in water and alcohol, and slightly unstable in the environment of light, strong acid, and base. […] Such a phenomenon is attributed to the fact that the greater the concentration difference, the higher the driving force of drug molecule diffusion.

| release quantity of Azithromycin with respect to temperature (encapsulation-type drug-carrying contact lens, FIG. 6) | release of Vitamin B12 versus drug-carrying contact lens free of drug carriers (drug-soaking type drug-carrying contact lens containing the drug carriers, FIG. 7(a)) | Compound | drug-release rate with respect to drug concentration (drug-soaking type drug-carrying contact lens, different concentrations of Vitamin B12, FIG. 7(b)) |
| --- | --- | --- | --- |
| increases with the temperature | – | CC[C@H]1OC(=O)[C@H](C)[C@@H](O[C@H]2C[C@@](C)(OC)[C@@H](O)[C@H](C)O2)[C@H](C)[C@@H](O[C@@H]2O[C@H](C)C[C@H](N(C)C)[C@H]2O)[C@](C)(O)C[C@@H](C)CN(C)[C@H](C)[C@@H](O)[C@]1(C)O [Azithromycin] | – |
| – | more slowly | Vitamin B12 | increases with the concentration of the drug molecules |
